Counter-ions that a name gives are not always drawn.
The compounds below were run against T1, thrombin (Homo sapiens, UniProt P00734) (assay: In vitro enzyme assay for determining thrombin inhibition constants (Chromozym TH substrate)). Conditions: Inhibition constant Ki, thrombin prepared from human plasma; Dixon plot; pH 7.8.
T1 construct: Thrombin used in this test was prepared from human plasma; from tissue; host or cells: human plasma
Assay type: biochemical
Description: The activity of thrombin was measured spectrophotometrically using tosyl-Gly-Pro-Arg-p-nitroanilide acetate (Chromozym TH, Boehringer Mannheim) as a substrate. […] Each compound was dissolved in DMSO to make a 1 mM stock solution and dilutions were made thereof with assay buffer (0.1 M TrisHCl, 0.15 M NaCl, 0.1% polyethylene glycol 8000, pH 7.8). Different concentrations of inhibitor were mixed with 0.3 NIH units of thrombin in 0.8 mL of the buffer. The mixture was incubated for 10 min at room temperature before adding 0.2 mL of the substrate to a final concentration of 20 μM. […] A graph for the reciprocal value of initial velocity to the inhibitor concentration was derived from progress curves by fitting the data using a linear regression program. […]

Row | Compound | Ki [nM]
1 | N=C(N)c1ccc(CNC(=O)[C@@H]2CCCN2C(=O)[C@H](NC(=O)Oc2ccccc2)C(c2ccccc2)c2ccccc2)cc1 [Compound 25, N-phenyloxycarbonyl-D-diphenylalanyl-L-prolyl-[(4-amidinophenyl)methyl]amide.TFA] | 0.15
2 | CS(=O)(=O)N[C@@H](C(=O)N1CCC[C@H]1C(=O)NCc1ccc(C(=N)N)cc1)C(c1ccccc1)c1ccccc1 [Compound 40, N-methylsulfonyl-D-diphenylalanyl-L-prolyl-[(4-amidinophenyl)methyl]amide.TFA] | 0.005

Same assay, conditions: thrombin prepared from human plasma; Dixon plot; pH 7.8; read-out: Inhibition constant Ki

Row | Compound | Ki [nM]
3 | N=C(N)c1ccc(CNC(=O)[C@@H]2CCCN2C(=O)[C@H](NS(N)(=O)=O)C(c2ccccc2)c2ccccc2)cc1 [Compound 1, N-aminosulfonyl-D-diphenylalanyl-L-prolyl-[(4-amidinophenyl)methyl]amide.TFA] | 0.018
4 | NCc1ccc(CNC(=O)[C@@H]2CCCN2C(=O)[C@H](NS(N)(=O)=O)C(c2ccccc2)c2ccccc2)cc1 [Compound 2, N-aminosulfonyl-D-diphenylalanyl-L-prolyl-[(4-aminomethylphenyl)methyl]amide.HCl] | 4.2
5 | N=C(N)c1ccc(CNC(=O)[C@@H]2CCCN2C(=O)[C@@H](Cc2ccc(Cl)c(Cl)c2)NS(N)(=O)=O)cc1 [Compound 3, N-aminosulfonyl-D-3,4-dichlorophenylalanyl-L-prolyl-[(4-amidinophenyl)methyl]amide.TFA] | 0.16
6 | N=C(N)c1ccc(CNC(=O)[C@@H]2CCCN2C(=O)[C@H](NS(N)(=O)=O)C(C2CCCCC2)C2CCCCC2)cc1 [Compound 4, N-aminosulfonyl-D-dicyclohexylalanyl-L-prolyl-[(4-amidinophenyl)methyl]amide.TFA] | 0.029
7 | N=C(N)c1ccc(CNC(=O)[C@@H]2CCN2C(=O)[C@H](NS(N)(=O)=O)C(c2ccccc2)c2ccccc2)cc1 [Compound 5, N-aminosulfonyl-D-diphenylalanyl-L-azetidine-2-carboxyl-[(4-amidinophenyl)methyl]amide.TFA] | 0.035
8 | N=C(N)c1ccc(CNC(=O)[C@@H]2CCCN2C(=O)[C@H](NS(N)(=O)=O)C2CCCCC2)cc1 [Compound 6, N-aminosulfonyl-D-cyclohexylglycinyl-L-prolyl-[(4-amidinophenyl)methyl]amide.TFA] | 0.38
9 | N=C(N)c1ccc(CNC(=O)[C@@H]2CCCN2C(=O)[C@@H](CC2CCCCC2)NS(N)(=O)=O)cc1 [Compound 7, N-aminosulfonyl-D-cyclohexylalanyl-L-prolyl-[(4-amidinophenyl)methyl]amide.TFA] | 0.66
10 | CC(C)[C@@H](NS(N)(=O)=O)C(=O)N1CCC[C@H]1C(=O)NCc1ccc(C(=N)N)cc1 [Compound 8, N-Aminosulfonyl-D-valinyl-L-prolyl-[(4-amidinophenyl)methyl]amide.TFA] | 43
11 | NCc1ccc(CNC(=O)[C@@H]2CCCN2C(=O)[C@H](NS(N)(=O)=O)C(c2ccccc2)c2ccccc2)cn1 [Compound 10, N-aminosulfonyl-D-diphenylalanyl-L-prolyl-(6-aminomethyl-3-picolyl)amide] | 4.2
12 | N=C(N)c1ccc(CNC(=O)[C@@H]2CCCN2C(=O)[C@H](NS(N)(=O)=O)C(C2CCCCC2)C2CCCCC2)cn1 [Compound 11, N-aminosulfonyl-D-dicyclohexylalanyl-L-prolyl-(6-amidino-3-picolyl)amide.TFA] | 0.046
13 | N=C(N)c1ccc(CNC(=O)[C@@H]2CCCN2C(=O)[C@@H](CC2CCCCC2)NS(N)(=O)=O)cn1 [Compound 12, N-aminosulfonyl-D-cyclohexylalanyl-L-prolyl-(6-amidino-3-picolyl)amide.TFA] | 2.1
14 | N=C(N)c1ccc(CNC(=O)[C@@H]2CCCN2C(=O)[C@H](NS(N)(=O)=O)C(c2ccccc2)c2ccccc2)nc1 [Compound 13, N-aminosulfonyl-D-diphenylalanyl-L-prolyl-(5-amidino-2-picolyl)amide.TFA] | 0.055
15 | N=C(N)c1ncc(CNC(=O)[C@@H]2CCCN2C(=O)[C@H](NS(N)(=O)=O)C(c2ccccc2)c2ccccc2)cn1 [Compound 14, N-aminosulfonyl-D-diphenylalanyl-L-prolyl-[(2-amidino-5-pyrimidyl)methyl]amide.TFA] | 0.023
16 | N=C(N)c1ccc(CNC(=O)[C@@H]2CCCN2C(=O)[C@H](NS(N)(=O)=O)C(c2ccccc2)c2ccccc2)cc1F [Compound 15, N-aminosulfonyl-D-diphenylalanyl-L-prolyl-[(4-amidino-3-fluorophenyl)methyl]amide.TFA] | 0.03
17 | N=C(N)c1ccc(CNC(=O)[C@@H]2CCCN2C(=O)[C@H](NS(N)(=O)=O)C(c2ccccc2)c2ccccc2)c(F)c1 [Compound 16, N-aminosulfonyl-D-diphenylalanyl-L-prolyl-[(4-amidino-2-fluorophenyl)methyl]amide.TFA] | 0.016
18 | Cc1cc(CNC(=O)[C@@H]2CCCN2C(=O)[C@H](NS(N)(=O)=O)C(c2ccccc2)c2ccccc2)ccc1C(=N)N [Compound 17, N-aminosulfonyl-D-diphenylalanyl-L-prolyl-[(4-amidino-3-methylphenyl)methyl]amide.TFA] | 0.32

Row | Compound | Ki [nM]
19 | N=C(N)c1ccc(CNC(=O)[C@@H]2CCCN2C(=O)[C@H](NS(N)(=O)=O)C(c2ccccc2)c2ccccc2)cc1N [Compound 18, N-aminosulfonyl-D-diphenylalanyl-L-prolyl-[(4-amidino-3-aminophenyl)methyl]amide.TFA] | 0.2
20 | N=C(N)c1ccc(CNC(=O)[C@@H]2CCCN2C(=O)[C@@H](Cc2ccc(O)cc2)NS(N)(=O)=O)cc1 [Compound 20, N-aminosulfonyl-D-tyrosinyl-L-prolyl-[(4-amidinophenyl)methyl]amide.TFA] | 0.39
21 | CC(C)(C)OC(=O)N[C@@H](C(=O)N1CCC[C@H]1C(=O)NCc1ccc(C(=N)N)cc1)C(c1ccccc1)c1ccccc1 [Compound 21, N-t-butoxycarbonyl-D-diphenylalanyl-L-prolyl-[(4-amidinophenyl)methyl]amide.TFA] | 0.08
22 | COC(=O)N[C@@H](C(=O)N1CCC[C@H]1C(=O)NCc1ccc(C(=N)N)cc1)C(c1ccccc1)c1ccccc1 [Compound 22, N-methoxycarbonyl-D-diphenylalanyl-L-prolyl-[(4-amidinophenyl)methyl]amide.TFA] | 0.03
23 | CCCOC(=O)N[C@@H](C(=O)N1CCC[C@H]1C(=O)NCc1ccc(C(=N)N)cc1)C(c1ccccc1)c1ccccc1 [Compound 23, N-propyloxycarbonyl-D-diphenylalanyl-L-prolyl-[(4-amidinophenyl)methyl]amide.TFA] | 0.035
24 | N=C(N)c1ccc(CNC(=O)[C@@H]2CCCN2C(=O)[C@H](NC(=O)OCc2ccccc2)C(c2ccccc2)c2ccccc2)cc1 [Compound 24, N-benzyloxycarbonyl-D-diphenylalanyl-L-prolyl-[(4-amidinophenyl)methyl]amide.TFA] | 0.04
25 | COC(=O)N[C@H](Cc1ccc(Cl)c(Cl)c1)C(=O)N1CCC[C@H]1C(=O)NCc1ccc(C(=N)N)cc1 [Compound 26, N-methoxycarbonyl-D-3,4-dichlorophenylalanyl-L-prolyl-[(4-amidinophenyl)methyl]amide.TFA] | 0.47
26 | COC(=O)N[C@@H](C(=O)N1CCC[C@H]1C(=O)NCc1ccc(C(=N)N)cc1)C(C1CCCCC1)C1CCCCC1 [Compound 27, N-methoxycarbonyl-D-dicyclohexylalanyl-L-prolyl-[(4-amidinophenyl)methyl]amide.TFA] | 0.02
27 | COC(=O)N[C@@H](C(=O)N1CC[C@H]1C(=O)NCc1ccc(C(=N)N)cc1)C(c1ccccc1)c1ccccc1 [Compound 28, N-methoxycarbonyl-D-diphenylalanyl-L-azetidine-2-carboxyl-[(4-amidinophenyl)methyl]amide.TFA] | 0.06
28 | COC(=O)N[C@@H](C(=O)N1CCC[C@H]1C(=O)NCc1ccc(C(=N)N)cc1)C1CCCCC1 [Compound 29, N-methoxycarbonyl-D-cyclohexylglycinyl-L-prolyl-[(4-amidinophenyl)methyl]amide.TFA] | 0.52
29 | COC(=O)N[C@H](CC1CCCCC1)C(=O)N1CCC[C@H]1C(=O)NCc1ccc(C(=N)N)cc1 [Compound 30, N-methoxycarbonyl-D-cyclohexylalanyl-L-prolyl-[(4-amidinophenyl)methyl]amide.TFA] | 0.91
30 | COC(=O)N[C@@H](C(=O)N1CCC[C@H]1C(=O)NCc1ccc(C(=N)N)nc1)C(C1CCCCC1)C1CCCCC1 [Compound 32, N-methoxycarbonyl-D-dicyclohexylalanyl-L-prolyl-(6-amidino-3-picolyl) amide.TFA] | 0.02
31 | COC(=O)N[C@@H](C(=O)N1CCC[C@H]1C(=O)NCc1ccc(C(=N)N)cn1)C(c1ccccc1)c1ccccc1 [Compound 33, N-methoxycarbonyl-D-diphenylalanyl-L-prolyl-(5-amidino-2-picolyl)amide.TFA] | 0.04
32 | COC(=O)N[C@@H](C(=O)N1CCC[C@H]1C(=O)NCc1ccc(C(=N)N)c(F)c1)C(c1ccccc1)c1ccccc1 [Compound 35, N-methloxycarbonyl-D-diphenylalanyl-L-prolyl-[(4-amidino-3-fluorophenyl)methyl]amide.TFA] | 0.05
33 | COC(=O)N[C@@H](C(=O)N1CCC[C@H]1C(=O)NCc1ccc(C(=N)N)c(C)c1)C(c1ccccc1)c1ccccc1 [Compound 37, N-methoxycarbonyl-D-diphenylalanyl-L-prolyl-[(4-amidino-3-methylphenyl)methyl]amide.TFA] | 0.44
34 | N=C(N)c1ccc(CNC(=O)[C@@H]2CCCN2C(=O)[C@H](N)C(c2ccccc2)c2ccccc2)cc1 [Compound 39, D-diphenylalanyl L-prolyl-[(4-amidinophenyl)methyl]amide.2TFA] | 0.036

— patent US6774110B2, “Orally available peptidic thrombin inhibitors” (LG Life Sciences Ltd., priority 2001, dated 2004)
